Measured values from ChEMBL document CHEMBL1201862, “PubChem BioAssay data set” (2004).
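Assay format: 96-well plates, 48-hour exposure. Abbreviation: GI50, concentration required for 50% inhibition of growth.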 Calls of active or inactive are those of the source. No stated cut-off is given here; in the data, active = GI50 up to about 1.1 µM and inactive = higher.

Tests used:
Experiment in all cases: growth of human tumour cells (NCI), 48 h
786-0 = test system: 786-0
A498 = test system: A498
A549 = test system: A549
ACHN = test system: ACHN
BT-549 = test system: BT-549
CAKI-1 = test system: CAKI-1
CCRF-CEM = test system: CCRF-CEM
COLO 205 = test system: COLO 205
DU-145 = test system: DU-145
EKVX = test system: EKVX
HCC 2998 = test system: HCC 2998
HCT-116 = test system: HCT-116
HCT-15 = test system: HCT-15
HL-60 = test system: HL-60
HOP-92 = test system: HOP-92
HT-29 = test system: HT-29
Hs-578T = test system: Hs-578T
IGROV-1 = test system: IGROV-1
K562 = test system: K562
KM12 = test system: KM12
M14 = test system: M14
MCF7 = test system: MCF7
MDA-MB-231 = test system: MDA-MB-231
MDA-MB-435 = test system: MDA-MB-435
MDA-N = test system: MDA-N
MOLT-4 = test system: MOLT-4
Malme-3M = test system: Malme-3M
NCI-H226 = test system: NCI-H226
NCI-H23 = test system: NCI-H23
NCI-H460 = test system: NCI-H460
NCI-H522 = test system: NCI-H522
NCI/ADR-RES = test system: NCI/ADR-RES
OVCAR-3 = test system: OVCAR-3
OVCAR-4 = test system: OVCAR-4
OVCAR-5 = test system: OVCAR-5
OVCAR-8 = test system: OVCAR-8
PC-3 = test system: PC-3
RPMI-8226 = test system: RPMI-8226
RXF 393 = test system: RXF 393
SF-268 = test system: SF-268
SF-295 = test system: SF-295
SF-539 = test system: SF-539
SK-MEL-28 = test system: SK-MEL-28
SK-MEL-2 = test system: SK-MEL-2
SK-MEL-5 = test system: SK-MEL-5
SK-OV-3 = test system: SK-OV-3
SN12C = test system: SN12C
SNB-19 = test system: SNB-19
SNB-75 = test system: SNB-75
SR = test system: SR
SW-620 = test system: SW-620
T47D = test system: T47D
TK-10 = test system: TK-10
U-251 = test system: U-251
UACC-257 = test system: UACC-257
UACC-62 = test system: UACC-62
UO-31 = test system: UO-31

## C1OCN2c3nonc3N3COCN4c5nonc5N1C2C43 (configuration not stated)
786-0
  GI50: > 100 µM (inactive)
A498
  GI50: > 100 µM (inactive)
A549
  GI50: > 100 µM (inactive)
ACHN
  GI50: > 100 µM (inactive)
BT-549
  GI50: > 100 µM (inactive)
CAKI-1
  GI50: > 100 µM (inactive)
CCRF-CEM
  GI50: 77.8 µM (inactive)
COLO 205
  GI50: 40.3 µM (inactive)
DU-145
  GI50: > 100 µM (inactive)
EKVX
  GI50: > 100 µM (inactive)
HCC 2998
  GI50: 68.4 µM (inactive)
HCT-116
  GI50: 57.4 µM (inactive)
HCT-15
  GI50: 65.9 µM
HL-60
  GI50: 83.4 µM (inactive)
HOP-92
  GI50: > 100 µM (inactive)
HT-29
  GI50: 31.1 µM (inactive)
Hs-578T
  GI50: > 100 µM (inactive)
IGROV-1
  GI50: > 100 µM (inactive)
K562
  GI50: 78 µM (inactive)
KM12
  GI50: 49.2 µM (inactive)
M14
  GI50: > 100 µM (inactive)
MCF7
  GI50: 49.1 µM (inactive)
MDA-MB-231
  GI50: > 100 µM (inactive)
MDA-MB-435
  GI50: > 100 µM (inactive)
MDA-N
  GI50: 62.8 µM (inactive)
MOLT-4
  GI50: 50.1 µM (inactive)
Malme-3M
  GI50: > 100 µM (inactive)
NCI-H226
  GI50: > 100 µM (inactive)
NCI-H23
  GI50: > 100 µM (inactive)
NCI-H460
  GI50: > 100 µM (inactive)
NCI-H522
  GI50: > 100 µM (inactive)
NCI/ADR-RES
  GI50: > 100 µM (inactive)
OVCAR-3
  GI50: > 100 µM (inactive)
OVCAR-4
  GI50: > 100 µM (inactive)
OVCAR-5
  GI50: > 100 µM (inactive)
OVCAR-8
  GI50: > 100 µM (inactive)
PC-3
  GI50: > 100 µM (inactive)
RPMI-8226
  GI50: > 100 µM (inactive)
RXF 393
  GI50: > 100 µM (inactive)
SF-268
  GI50: > 100 µM (inactive)
SF-295
  GI50: > 100 µM (inactive)
SF-539
  GI50: > 100 µM (inactive)
SK-MEL-28
  GI50: > 100 µM (inactive)
SK-MEL-2
  GI50: > 100 µM (inactive)
SK-MEL-5
  GI50: > 100 µM (inactive)
SK-OV-3
  GI50: > 100 µM (inactive)
SN12C
  GI50: > 100 µM (inactive)
SNB-19
  GI50: > 100 µM (inactive)
SNB-75
  GI50: > 100 µM (inactive)
SR
  GI50: > 100 µM (inactive)
SW-620
  GI50: > 100 µM (inactive)
T47D
  GI50: > 100 µM (inactive)
TK-10
  GI50: > 100 µM (inactive)
U-251
  GI50: > 100 µM (inactive)
UACC-257
  GI50: > 100 µM (inactive)
UACC-62
  GI50: > 100 µM (inactive)
UO-31
  GI50: > 100 µM (inactive)
